In patent US8134004B2, “Substituted N-bicyclicalkyl bicycliccarboxyamide compounds” (Pfizer Inc., priority 2006, dated 2012):

Target: human VR1 (Homo sapiens, UniProt Q8NER1)
Test: Human VR1 antagonist assay (Ca2+ imaging)
Assay type: cell-based
Details: Ca2+ imaging assay using human VR1 highly expressing cells, fura-2/AM; agonist stimulation (capsaicin 300 nM or acid pH 5.8), not given
Text: Human VR1 Antagonist Assay
VR1 antagonistic activity can be determined by the Ca^2+ imaging assay using human VR1 highly expressing cells. The cells that highly express human VR1 receptors are obtainable from several different conventional methods. The one standard method is cloning from human Dorsal Root Ganglion (DRG) or kidney according to the methods such as described in the journal article; Nature, 389, pp 816-824, 1997. Alternatively VR1 receptors highly expressing human keratinocytes are also known and published in the journal article (Biochemical and Biophysical Research Communications, 291, pp 124-129, 2002). […] Furthermore, the method to up regulate human VR1 gene, which is usually a silent gene or don't produce detectable level of VR1 receptors, is also available to obtain propriety cells. Such genetic modification method was described in detail; Nat. Biotechnol., 19, pp 440-445, 2001.
The cells that express human VR1 receptors were maintained in culture flask at 37° C. in an environment containing 5% CO2 until use in the assay. The intracellular Ca^2+ imaging assay to determine VR1 antagonistic activities were done by following procedures.
The culture medium was removed from the flask and fura-2/AM fluorescent calcium indicator was added to the flask at a concentration of 5 μM in the medium. The flask was placed in CO2 incubator and incubated for 1 hour. Then the cells expressing the human VR1 receptors were detached from the flask follow by washing with phosphate buffer saline, PBS(−) and re-suspended in assay buffer. The 80 μl of aliquot of cell suspension (3.75×10^5 cells/ml) was added to the assay plate and the cells were spun down by centrifuge (950 rpm, 20° C., 3 minutes).
The compounds of the examples were tested in the Human VR1 antagonist assay described above.
The capsaicin-induced changes in the intracellular calcium concentration were monitored using FDSS 6000 (Hamamatsu Photonics, Japan), a fluorometric imaging system. The cell suspension in Krebs-Ringer HEPES (KRH) buffer (115 mM NaCl, 5.4 mM KCl, 1 mM MgSO4, 1.8 mM CaCl2, 11 mM D-Glucose, 25 mM HEPES, 0.96 mM Na2HPO4, pH 7.3) were pre-incubated with varying concentrations of the test compounds or KRH buffer (buffer control) for 15 minutes at room temperature under the dark condition. Then capsaicin solution, which gives 300 nM in assay mixture, was automatically added to the assay plate by the FDSS 6000.
The Acid-induced changes in the intracellular calcium concentration were monitored using FDSS 6000 (Hamamatsu Photonics, Japan), a fluorometric imaging system. The cell suspension in resting buffer (HBSS supplemented with 10 mM HEPES, pH 7.4) were pre-incubated with varying concentrations of the test compounds or resting buffer (buffer control) for 15 minutes at room temperature under the dark condition. The cells were automatically added the stimulating solution (HBSS supplemented with MES, final assay buffer pH5.8) by the FDSS 6000.
The monitoring of the changes in the fluorescence signals (λex=340 nm/380 nm, λem=510-520 nm) was initiated at 1 minute prior to the addition of capsaicin solution or acidic buffer and continued for 5 minute.

human VR1, sequence (Q8NER1 whole entry): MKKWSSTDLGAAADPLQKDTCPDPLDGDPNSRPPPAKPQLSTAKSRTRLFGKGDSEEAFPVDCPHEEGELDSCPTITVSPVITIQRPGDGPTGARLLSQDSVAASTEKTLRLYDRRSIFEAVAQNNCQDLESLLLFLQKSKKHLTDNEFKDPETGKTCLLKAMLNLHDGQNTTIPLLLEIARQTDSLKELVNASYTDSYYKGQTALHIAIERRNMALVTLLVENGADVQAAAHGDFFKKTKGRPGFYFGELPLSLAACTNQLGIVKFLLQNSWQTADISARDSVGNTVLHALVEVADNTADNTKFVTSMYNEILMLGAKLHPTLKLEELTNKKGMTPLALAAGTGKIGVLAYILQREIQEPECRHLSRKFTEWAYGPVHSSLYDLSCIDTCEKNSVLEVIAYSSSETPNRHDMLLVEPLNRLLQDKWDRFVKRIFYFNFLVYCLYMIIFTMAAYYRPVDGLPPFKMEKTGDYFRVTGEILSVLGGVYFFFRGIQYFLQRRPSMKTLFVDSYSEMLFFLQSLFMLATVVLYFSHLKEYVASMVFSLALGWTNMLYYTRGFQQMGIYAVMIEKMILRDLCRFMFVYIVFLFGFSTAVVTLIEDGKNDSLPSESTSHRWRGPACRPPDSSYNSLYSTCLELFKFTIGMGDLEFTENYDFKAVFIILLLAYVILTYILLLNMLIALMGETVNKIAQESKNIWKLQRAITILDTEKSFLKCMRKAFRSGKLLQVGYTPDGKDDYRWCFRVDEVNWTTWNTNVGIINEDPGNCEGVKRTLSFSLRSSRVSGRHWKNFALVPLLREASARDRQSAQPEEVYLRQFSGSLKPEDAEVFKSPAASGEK

| IC50 [µM] | Structure (SMILES) |
| --- | --- |
| 0.176 | CC(O)(c1ccc2cc(C(=O)NCc3cccc4cnccc34)ccc2n1)C(F)(F)F (centres unmarked) [Example C17, N-(isoquinolin-5-ylmethyl)-2-(2,2,2-trifluoro-1-hydroxy-1-methylethyl)quinoline-6-carboxamide] |
| 0.136 | CCC(NC(=O)c1ccc2nc(C(C)(C)C(F)(F)F)ccc2c1)c1ccnc2ccccc12 (centres unmarked) [Example C18, N-(1-quinolin-4-ylpropyl)-2-(2,2,2-trifluoro-1,1-dimethylethyl) quinoline-6-carboxamide] |
| 0.57 | CC(C)(c1ccc2cc(C(=O)NC(CO)c3ccnc4ccccc34)ccc2n1)C(F)(F)F (centres unmarked) [Example C20, N-(2-hydroxy-1-quinolin-4-ylethyl)-2-(2,2,2-trifluoro-1,1-dimethylethyl)quinoline-6-carboxamide] |
| 0.246 | CC(NC(=O)c1cnc2cc(C(C)(C)C)ccc2c1)c1ccnc2ccccc12 (centres unmarked) [Example D1, 7-tert-butyl-N-(1-quinolin-4-ylethyl)quinoline-3-carboxamide] |
| 0.237 to 0.455 | Oc1cc2c(cc1O)CN(C(=S)NCCc1ccc(Cl)cc1)CCC2 [capsazepine, reference compound] |
